# Measurements from patent US9388137B2, “Quaternized amines as sodium channel blockers” (Purdue Pharma L.P., priority 2011, dated 2016).
# What was measured:
# [1] = molecular target: human Nav1.7 (Homo sapiens (Human), UniProt Q15858); test: FLIPR sodium dye assay for sodium channel blocking activity; type: cell-based; conditions: recombinant Nav1.7/HEK293 cells
# [2] = molecular target: hNav1.7 (Homo sapiens (Human), UniProt Q15858); test: Electrophysiology (EP) assay, whole-cell patch clamp; type: cell-based; conditions: hNav1.7 HEK-293 cells
# Chain of hNav1.7 (Q15858 other isoform, or with tags, fused parts or gaps): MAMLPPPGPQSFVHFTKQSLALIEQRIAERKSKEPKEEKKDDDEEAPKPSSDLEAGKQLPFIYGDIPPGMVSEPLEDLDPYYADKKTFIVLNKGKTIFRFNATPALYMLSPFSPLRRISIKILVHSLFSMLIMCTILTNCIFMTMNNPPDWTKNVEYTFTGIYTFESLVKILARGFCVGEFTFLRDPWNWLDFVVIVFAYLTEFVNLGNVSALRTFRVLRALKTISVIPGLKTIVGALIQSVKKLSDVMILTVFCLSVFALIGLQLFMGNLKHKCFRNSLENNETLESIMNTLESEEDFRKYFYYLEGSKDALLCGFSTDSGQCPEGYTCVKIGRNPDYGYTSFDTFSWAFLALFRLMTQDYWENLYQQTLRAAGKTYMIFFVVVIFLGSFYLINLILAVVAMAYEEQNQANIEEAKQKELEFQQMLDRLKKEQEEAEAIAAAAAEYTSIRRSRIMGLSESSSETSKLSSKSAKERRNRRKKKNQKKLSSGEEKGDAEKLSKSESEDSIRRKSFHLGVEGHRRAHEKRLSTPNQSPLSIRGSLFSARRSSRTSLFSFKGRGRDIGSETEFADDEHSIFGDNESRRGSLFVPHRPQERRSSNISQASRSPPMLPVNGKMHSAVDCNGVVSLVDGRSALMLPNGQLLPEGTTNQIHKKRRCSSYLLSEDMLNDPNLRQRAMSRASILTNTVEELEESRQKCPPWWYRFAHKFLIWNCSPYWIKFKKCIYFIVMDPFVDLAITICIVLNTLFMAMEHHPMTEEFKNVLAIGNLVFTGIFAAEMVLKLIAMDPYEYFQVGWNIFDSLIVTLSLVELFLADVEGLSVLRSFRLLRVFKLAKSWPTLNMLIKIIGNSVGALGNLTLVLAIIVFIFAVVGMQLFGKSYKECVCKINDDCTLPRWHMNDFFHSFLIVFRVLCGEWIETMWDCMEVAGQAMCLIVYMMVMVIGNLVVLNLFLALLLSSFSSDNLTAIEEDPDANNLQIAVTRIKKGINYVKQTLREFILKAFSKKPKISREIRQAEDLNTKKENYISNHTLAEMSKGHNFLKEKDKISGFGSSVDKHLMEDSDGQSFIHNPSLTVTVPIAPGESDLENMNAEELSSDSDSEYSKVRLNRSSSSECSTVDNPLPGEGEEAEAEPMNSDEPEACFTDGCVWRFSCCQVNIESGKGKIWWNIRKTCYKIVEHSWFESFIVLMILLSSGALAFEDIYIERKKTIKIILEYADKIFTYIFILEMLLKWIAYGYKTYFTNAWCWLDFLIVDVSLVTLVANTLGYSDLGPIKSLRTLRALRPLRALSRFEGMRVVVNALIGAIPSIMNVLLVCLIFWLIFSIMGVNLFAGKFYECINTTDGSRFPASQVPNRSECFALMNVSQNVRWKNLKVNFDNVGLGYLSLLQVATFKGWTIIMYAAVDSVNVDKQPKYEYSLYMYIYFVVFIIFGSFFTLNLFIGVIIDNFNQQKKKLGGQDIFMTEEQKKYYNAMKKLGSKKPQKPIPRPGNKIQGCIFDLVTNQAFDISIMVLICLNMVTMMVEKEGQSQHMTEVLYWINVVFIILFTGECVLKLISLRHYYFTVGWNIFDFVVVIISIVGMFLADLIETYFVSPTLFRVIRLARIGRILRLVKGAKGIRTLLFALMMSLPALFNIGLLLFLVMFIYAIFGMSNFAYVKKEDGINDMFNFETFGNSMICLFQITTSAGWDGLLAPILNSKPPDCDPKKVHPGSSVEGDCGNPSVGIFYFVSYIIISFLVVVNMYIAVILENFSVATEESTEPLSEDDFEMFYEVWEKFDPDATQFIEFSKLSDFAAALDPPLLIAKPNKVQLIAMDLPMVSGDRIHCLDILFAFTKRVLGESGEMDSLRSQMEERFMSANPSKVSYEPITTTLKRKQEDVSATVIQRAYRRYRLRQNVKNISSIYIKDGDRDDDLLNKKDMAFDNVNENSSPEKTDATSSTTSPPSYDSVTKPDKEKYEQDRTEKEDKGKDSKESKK
# Chain of human Nav1.7 (Q15858 other isoform, or with tags, fused parts or gaps): as above
Compound,IC50 [1] [µM],"Ki ([2]; affinity for the inactivated state of the channel, read-out: Nav1.7 Activity EP assay Ki) [µM]","Kd ([2]; dissociation constant for binding to the resting state of the channel, read-out: Nav1.7 Activity EP assay Kr) [µM]"
"Cc1cc(C(=O)N(C)C2CC[N+](C)(C)CC2)cc(-c2ccc(Oc3ccc(F)cc3)cc2)n1 [Example 8, 4-({2-[4-(4-Fluoro-phenoxy)-phenyl]-6-methyl-pyridine-4-carbonyl}-methyl-amino)-1,1-dimethyl-piperidinium]",> 20,–,–
"Cc1cc(C(=O)NCc2ccc([N+](C)(C)C)cc2)cc(-c2ccc(Oc3ccc(F)cc3)cc2)n1 [Example 4, {4-[({2-[4-(4-fluoro-phenoxy)-phenyl]-6-methyl-pyridine-4-carbonyl}-amino)-methyl]-phenyl}-trimethyl-ammonium]",3.99 ± 0.289,–,–
"Cc1cc(C(=O)NCC[N+](C)(C)C)cc(-c2ccc(Oc3ccc(F)cc3)cc2)n1 [Example 6, [2-({2-[4-(4-fluoro-phenoxy)-phenyl]-6-methyl-pyridine-4-carbonyl}-amino)-ethyl]-trimethyl-ammonium]",6.52 ± 0.466,–,–
"Cc1cc(C(=O)N2CCC([N+]3(C)CCCC3)CC2)cc(-c2ccc(Oc3ccc(F)cc3)cc2)n1 [Example 3, 1-(1-{2-[4-(4-fluoro-phenoxy)-phenyl]-6-methyl-pyridine-4-carbonyl}-piperidin-4-yl)-1-methyl-pyrrolidinium]",> 20,–,–
"Cc1cc(C(=O)N2CC[N+](C)(C)CC2)cc(-c2ccc(Oc3ccc(F)cc3)cc2)n1 [Example 7, 4-{2-[4-(4-Fluoro-phenoxy)-phenyl]-6-methyl-pyridine-4-carbonyl}-1,1-dimethyl-piperazin-1-ium]",> 20,–,–
"Cc1cc(C(=O)NCC[N+]2(C)CCCCC2)cc(-c2ccc(Oc3ccc(F)cc3)cc2)n1 [Example 1, 1-[2-({2-[4-(4-fluoro-phenoxy)-phenyl]-6-methyl-pyridine-4-carbonyl}-amino)-ethyl]-1-methyl-piperidinium]",0.872 ± 0.255,6.03 ± 0.91,125 ± 23.4
"Cc1cc(C(=O)NCC[N+]2(C)CCOCC2)cc(-c2ccc(Oc3ccc(F)cc3)cc2)n1 [Example 2, 4-[2-({2-[4-(4-fluoro-phenoxy)-phenyl]-6-methyl-pyridine-4-carbonyl}-amino)-ethyl]-4-methyl-morpholin-4-ium]",1.88 ± 0.287,–,–
"Cc1cc(C(=O)NCC[N+]2(C)CCCC2)cc(-c2ccc(Oc3ccc(F)cc3)cc2)n1 [Example 5, 1-[2-({2-[4-(4-fluoro-phenoxy)-phenyl]-6-methyl-pyridine-4-carbonyl}-amino)-ethyl]-1-methyl-pyrrolidinium]",2.9 ± 0.375,–,–
